From patent US20230159510A1, “NOVEL PRMT5 INHIBITORS” (AMGEN INC., priority 2020, published 2023)

Key:
[1] = system: HCT116 MTAP null cells; assay: HCT116 proliferation assay, MTAP null cells (CellTiter-Glo, 6 days); type: cell-based; settings: HCT116-MTAP null, 144 h, read-out: Protif_ HCT116-MTAP null IC50
Method in brief: (§1)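 Compound titrations (top dose 1 or 10 µM, 1:3 dilution, 8 or 9 concentrations) and a DMSO control were applied to cells cultured overnight beforehand in RPMI 1640 with 10% FBS at 37° C, 5% CO2; viability was scored from luminescence.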

[2] = system: HCT116 WT cells; assay: HCT116 proliferation assay, WT cells (CellTiter-Glo, 6 days); type: cell-based; settings: Homo sapiens, HCT-116, 144 h, read-out: Prolif_HCT116-WT IC50
Method in brief: as §1

[3] = biological target: PRMT5/MEP50 (Homo sapiens, UniProt O14744); assay: MTase-Glo methyl transferase assay, Method A (Histone H4 peptide, 1 µM MTA, 24 h pre-incubation); type: biochemical; design: made in house; settings: read-out: PRMT5 MTase Glo Ki (nM, Meth. A)
PRMT5/MEP50, sequence (O14744 whole entry): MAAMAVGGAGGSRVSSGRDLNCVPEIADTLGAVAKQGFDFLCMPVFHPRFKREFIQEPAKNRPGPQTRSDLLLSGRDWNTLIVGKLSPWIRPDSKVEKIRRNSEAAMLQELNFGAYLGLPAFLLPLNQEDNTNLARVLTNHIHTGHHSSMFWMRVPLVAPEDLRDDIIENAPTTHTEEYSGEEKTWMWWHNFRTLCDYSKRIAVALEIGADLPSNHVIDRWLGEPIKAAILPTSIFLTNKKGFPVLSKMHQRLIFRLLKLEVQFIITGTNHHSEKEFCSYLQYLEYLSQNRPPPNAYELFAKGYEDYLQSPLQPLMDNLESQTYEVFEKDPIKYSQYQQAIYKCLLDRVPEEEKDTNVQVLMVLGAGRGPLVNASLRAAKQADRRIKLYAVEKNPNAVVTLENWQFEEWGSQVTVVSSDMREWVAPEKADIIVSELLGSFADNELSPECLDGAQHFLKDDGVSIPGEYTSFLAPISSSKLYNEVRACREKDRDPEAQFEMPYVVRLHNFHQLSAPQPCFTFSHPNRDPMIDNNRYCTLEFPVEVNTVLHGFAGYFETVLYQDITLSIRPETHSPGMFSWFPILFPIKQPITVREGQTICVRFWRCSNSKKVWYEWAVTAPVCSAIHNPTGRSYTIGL
PRMT5/MEP50, sequence (Q9BQA1 whole entry partner): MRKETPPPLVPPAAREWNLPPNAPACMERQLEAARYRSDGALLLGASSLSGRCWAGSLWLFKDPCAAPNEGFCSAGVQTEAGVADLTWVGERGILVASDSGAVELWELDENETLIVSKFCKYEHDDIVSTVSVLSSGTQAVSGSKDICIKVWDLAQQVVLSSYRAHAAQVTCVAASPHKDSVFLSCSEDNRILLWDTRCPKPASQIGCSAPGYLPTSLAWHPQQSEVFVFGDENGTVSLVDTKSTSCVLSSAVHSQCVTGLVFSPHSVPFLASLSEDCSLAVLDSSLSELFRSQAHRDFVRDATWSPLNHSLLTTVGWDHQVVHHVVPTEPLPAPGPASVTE
Method in brief: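 Luminescent SAH detection (MTase-Glo) after a 2 h room-temperature methylation of 1 µM biotinylated H4 (1-21) peptide by 10 nM PRMT5/MEP50 with 5 µM SAM, in 50 mM Tris pH 8.0.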

Row | IC50 [1] [nM] | IC50 [2] [nM] | Ki [3] [nM] | Structure (SMILES)
1 | 278 | 9680 | 0.16 | CCOc1ccc(CN(C(=O)c2cnc3nc(N)c(Br)cc3c2)[C@H](C)c2ncccn2)nn1 [Example 382, 7-amino-6-bromo-N-((6-ethoxy-3-pyridazinyl)methyl)-N-((1R)-1-(2-pyrimidinyl)ethyl)-1,8-naphthyridine-3-carboxamide]
2 | 824 | > 10000 | 1.29 | C[C@H](c1ncccc1F)N(Cc1ccc(C#N)cn1)C(=O)c1ccc2nc(N)c(Cl)cc2c1 [Example 351, 2-amino-3-chloro-N-((5-cyano-2-pyridinyl)methyl)-N-((1R)-1-(3-fluoro-2-pyridinyl)ethyl)-6-quinolinecarboxamide]
3 | 198 | > 10000 | 0.37 | Cc1cc2cc(C(=O)N(Cc3ccc(C(F)(F)F)cn3)[C@H](C)c3ncccc3F)cnc2nc1N [Example 389, 7-amino-N-((1R)-1-(3-fluoro-2-pyridinyl)ethyl)-6-methyl-N-((5-(trifluoromethyl)-2-pyridinyl)methyl)-1,8-naphthyridine-3-carboxamide]
4 | 227 | 6200 | 0.18 | Cc1cc2cc(C(=O)N(Cc3ccc(C(F)F)cn3)[C@@H]3CCC[C@H]3O)ccc2nc1N [Example 364, 2-amino-N-((5-(difluoromethyl)pyridin-2-yl)methyl)-N-((1R,2R)-2-hydroxycyclopentyl)-3-methylquinoline-6-carboxamide]
5 | 385 | > 10000 | 1.09 | Cc1cc2cc(C(=O)N(Cc3ccc(C(F)(F)F)nc3)Cc3ncccc3F)ccc2nc1N [Example 322, 2-amino-N-((3-fluoro-2-pyridinyl)methyl)-3-methyl-N-((6-(trifluoromethyl)-3-pyridinyl)methyl)-6-quinolinecarboxamide]
6 | 413 | > 10000 | 0.73 | C[C@H](c1ncccn1)N(Cc1ccc(Br)nn1)C(=O)c1ccc2nc(N)c(Cl)cc2c1 [Example 348, 2-amino-N-((6-bromo-3-pyridazinyl)methyl)-3-chloro-N-((1R)-1-(2-pyrimidinyl)ethyl)-6-quinolinecarboxamide]
7 | 194 | 5620 | 0.79 | COCCN(Cc1ccc(C(F)(F)F)cn1)C(=O)c1ccc2nc(N)c(C)cc2c1 [Example 370, 2-amino-N-(2-methoxyethyl)-3-methyl-N-((5-(trifluoromethyl)-2-pyridinyl)methyl)-6-quinolinecarboxamide]
8 | 65 | 1720 | 0.06 | CO[C@H](CN(Cc1ccc(C(F)(F)F)cn1)C(=O)c1ccc2nc(N)c(C)cc2c1)C(F)(F)F (single isomer, unassigned) [Example 453]
9 | 93 | 2210 | 0.09 | Cc1nc(CN(C(=O)c2cnc3nc(N)c(Br)cc3c2)[C@H](C)c2ncccn2)ccc1Br (single isomer, unassigned) [Example 470]
10 | 644 | 7440 | 2.35 | Cc1cc2cc(C(=O)N(Cc3ccc(C(F)(F)F)cn3)[C@H](C)C3CC3)ccc2nc1N [Example 309, 2-amino-N-((1R)-1-cyclopropylethyl)-3-methyl-N-((5-(trifluoromethyl)-2-pyridinyl)methyl)-6-quinolinecarboxamide]
11 | 163 | 2840 | 0.21 | Cc1cc2cc(C(=O)N(Cc3ccc(C(F)(F)F)cn3)CC3CC3)c(F)cc2nc1N [Example 311, 2-amino-N-(cyclopropylmethyl)-7-fluoro-3-methyl-N-((5-(trifluoromethyl)-2-pyridinyl)methyl)-6-quinolinecarboxamide]
12 | 159 | 1370 | 0.03 | Nc1nc2ncc(C(=O)N(Cc3ccc(C(F)(F)F)cn3)[C@@H](c3ncccn3)C3CC3)cc2cc1Br [Example 373, 7-amino-6-bromo-N-((R)-cyclopropyl(2-pyrimidinyl)methyl)-N-((5-(trifluoromethyl)-2-pyridinyl)methyl)-1,8-naphthyridine-3-carboxamide]
13 | 359 | > 10000 | 0.3 | Cc1cc2cc(C(=O)N(Cc3ccccn3)Cc3ccc(C(F)(F)F)cn3)ccc2nc1N [Example 302, 2-amino-3-methyl-N-(2-pyridinylmethyl)-N-((5-(trifluoromethyl)-2-pyridinyl)methyl)-6-quinolinecarboxamide]
14 | 506 | > 10000 | 0.42 | Cc1cc2cc(C(=O)N(Cc3ccc(C(F)(F)F)cn3)C3(c4ncccn4)CC3)ccc2nc1N [Example 430, 2-amino-3-methyl-N-(1-(2-pyrimidinyl)cyclopropyl)-N-((5-(trifluoromethyl)-2-pyridinyl)methyl)-6-quinolinecarboxamide]
15 | 515 | > 10000 | 1.02 | Cc1cc2cc(C(=O)N(Cc3cnc(C(F)(F)F)cn3)[C@H](C)c3ccc(F)cn3)ccc2nc1N (single isomer, unassigned) [Example 483]
16 | 327 | > 10000 | 0.15 | C[C@H](c1ncccn1)N(Cc1ccc(C(F)(F)F)nn1)C(=O)c1cnc2nc(N)c(Br)cc2c1 (single isomer, unassigned) [Example 444]
17 | 123 | 4050 | 0.18 | C[C@H](c1ncccn1)N(Cc1ccc(Cl)cn1)C(=O)c1ccc2nc(N)c(Br)cc2c1 [Example 412, 2-amino-3-bromo-N-((5-chloro-2-pyridinyl)methyl)-N-((1R)-1-(2-pyrimidinyl)ethyl)-6-quinolinecarboxamide]
18 | 349 | > 10000 | 0.29 | Cc1cc2cc(C(=O)N(Cc3ccc(C(F)(F)F)cn3)[C@@H]3CCCN(C4CC4)C3=O)ccc2nc1N (single isomer, unassigned) [Example 462]
19 | 328 | 7010 | 0.12 | Cc1cc2nc(N)c(C)cc2cc1C(=O)N(Cc1ccc(C(F)(F)F)cn1)CC(C)C [Example 539, 2-amino-N-isobutyl-3,7-dimethyl-N-((5-(trifluoromethyl)pyridin-2-yl)methyl)quinoline-6-carboxamide]
20 | 340 | 6960 | 0.04 | Cc1cc2cc(C(=O)N(Cc3ccc(NCC(F)(F)F)nn3)[C@H](C)c3ncccn3)ccc2nc1N [Example 378, 2-amino-3-methyl-N-((1R)-1-(2-pyrimidinyl)ethyl)-N-((6-((2,2,2-trifluoroethyl)amino)-3-pyridazinyl)methyl)-6-quinolinecarboxamide]
21 | 268 | 8770 | 15.1 | Cc1cc2cc(C(=O)N(Cc3ccc(C(F)(F)F)cn3)Cc3cnc(N)s3)ccc2nc1N [Example 305, 2-amino-N-((2-amino-1,3-thiazol-5-yl)methyl)-3-methyl-N-((5-(trifluoromethyl)-2-pyridinyl)methyl)-6-quinolinecarboxamide]
22 | 884 | > 10000 | 1.67 | Cc1cc2cc(C(=O)N(Cc3ncccc3F)Cc3ncc(F)cc3F)ccc2nc1N [Example 387, 2-amino-N-((3,5-difluoro-2-pyridinyl)methyl)-N-((3-fluoro-2-pyridinyl)methyl)-3-methyl-6-quinolinecarboxamide]
23 | 269 | 4270 | 0.13 | Cc1cc2cc(C(=O)N(Cc3ccc(C(F)(F)F)cn3)[C@@H]3CCCC(F)(F)[C@@H]3O)ccc2nc1N (single isomer, unassigned) [Example 466]
24 | 28 | 625 | 0.002 | Cc1cc2cc(C(=O)N(Cc3ccc(Br)nn3)[C@H](C)c3nccs3)ccc2nc1N [Example 514, 2-amino-N-((6-bromo-3-pyridazinyl)methyl)-3-methyl-N-((1R)-1-(1,3-thiazol-2-yl)ethyl)-6-quinolinecarboxamide]
25 | 78 | 2830 | 0.1 | Cc1cc2cc(C(=O)N(Cc3ccc(C#N)cn3)[C@H](C)c3ncn(C)n3)ccc2nc1N (single isomer, unassigned) [Example 531]
26 | 378 | > 10000 | 0.29 | C[C@H](c1ncccc1F)N(Cc1ccc(C#N)cn1)C(=O)c1cnc2nc(N)c(Br)cc2c1 [Example 354, 7-amino-6-bromo-N-((5-cyano-2-pyridinyl)methyl)-N-((1R)-1-(3-fluoro-2-pyridinyl)ethyl)-1,8-naphthyridine-3-carboxamide]
27 | 39 | 607 | 0.91 | Cc1cc2cc(C(=O)N(Cc3ccc(C(F)(F)F)cn3)[C@H](C)c3ncccn3)c(F)cc2nc1N [Example 429, 2-amino-7-fluoro-3-methyl-N-((1R)-1-(2-pyrimidinyl)ethyl)-N-((5-(trifluoromethyl)-2-pyridinyl)methyl)-6-quinolinecarboxamide]
28 | 252 | 3940 | 0.15 | CO[C@@H](CN(Cc1ccc(C(F)(F)F)cn1)C(=O)c1cnc2nc(N)c(Br)cc2c1)C(F)(F)F (single isomer, unassigned) [Example 454]
29 | 434 | > 10000 | 0.39 | Cc1cnc(CN(Cc2ccc(C(F)(F)F)cn2)C(=O)c2ccc3nc(N)c(C)cc3c2)cn1 [Example 337, 2-amino-3-methyl-N-((5-methyl-2-pyrazinyl)methyl)-N-((5-(trifluoromethyl)-2-pyridinyl)methyl)-6-quinolinecarboxamide]
30 | 101 | 3110 | 0.11 | Cc1cc2cc(C(=O)N(Cc3ccc(C(F)(F)F)cn3)[C@@H]3COCC[C@@H]3O)ccc2nc1N (single isomer, unassigned) [Example 471]
